Data as given in US12031136B2, “Treatment for skeletal diseases caused by intracellular protein trafficking defects” (Oklahoma Medical Research Foundation, priority 2017, dated 2024).
“Also recorded” adds a separate entry of the source.

Assays:
[1] = Growth hormone replacement therapy in the patient; format: in vivo, human; settings: started, discontinued after 1 year
[2] = tested on: UPR- and COP-II-related genes; assay: qRT-PCR of UPR- and COP-II-related genes in patient fibroblasts after AMO; format: cell-based, human; settings: patient fibroblasts treated with AMO
Protocol: (§1) Gene expression analyses with qPCR. Gene expression levels in the patient and irrelevant healthy control immortalized B cells or immortalized fibroblasts were analyzed by qPCR using primers listed in Supplemental Table 3. Total RNA extracted from the cells using Trizol was converted to cDNA using the M-MLV Reverse Transcriptase system. PCR analysis of cDNA was performed with the SYBR Green qPCR system using a CFX96 Real-time system instrument (Bio-Rad). To test for NMD, treatment with cycloheximide (100 μM) was performed by incubating patient's parental immortalized B cells for 6 hours, and then transcripts were analyzed by direct sequencing.
AMO. The AMO (5′-AGAAAAGCGGGCGATGTTAcCTTCA-3′ [the lowercase “c” represents the mutated base compared to healthy control]) against exon 9 in the maternal mutant transcript containing cryptic splice donor site was designed (Gene Tools Inc.) (38). Forty thousand fibroblasts were seeded onto a 24-well plate. […] After 12, 24, and 48 hours, RNA was extracted for quantitative RT-PCR as well as cloning of MBTPS1 cDNA. The following primer pair was used to quantify a MBTPS1 transcript with 41-bp deletion in exon 9: forward primer targeting the boundary exons 7 and 8, 5′-[…]-3′; reverse primer targeting exon 10, 5′-CTGG-TAGCTCCTTCAAAGTC-3′.

MBTPS1 transcripts = assay: MBTPS1 transcript analysis (qRT-PCR and cloning of exon 9 cDNA) in fibroblasts treated with AMO; format: cell-based, human
Protocol: as §1
AMO. The AMO (5′-AGAAAAGCGGGCGATGTTAcCTTCA-3′ [the lowercase “c” represents the mutated base compared to healthy control]) against exon 9 in the maternal mutant transcript containing cryptic splice donor site was designed (Gene Tools Inc.) (38). Forty thousand fibroblasts were seeded onto a 24-well plate. Introduction of AMO (10 μM) in maternal and patient fibroblasts was carried out using the Endo-Porter (6 μM) peptide delivery system (Gene Tools Inc.). After 12, 24, and 48 hours, RNA was extracted for quantitative RT-PCR as well as cloning of MBTPS1 cDNA. The following primer pair was used to quantify a MBTPS1 transcript with 41-bp deletion in exon 9: forward primer targeting the boundary exons 7 and 8, 5′-[…]-3′; reverse primer targeting exon 10, 5′-CTGG-TAGCTCCTTCAAAGTC-3′.

patient fibroblasts = assay: Secreted procollagen I ELISA of fibroblast supernatant; format: cell-based, human
Protocol: Measurement of secreted procollagen I. Supernatant from cultured fibroblasts was collected at 48 hours after treatment with AMO and was then diluted 500-fold with PBS (39). Secreted procollagen 1a in diluted samples was measured with an ELISA kit according to the manufacturer's instructions (R&D Systems).

BBF2H7 = assay: Western blotting of endogenous BBF2H7 cleavage in AMO-treated patient fibroblasts; format: cell-based, human; settings: AMO vs control oligo
Protocol: (§2) Western blotting. Protein extracts from cultured cells or tissues were prepared using a 1% Triton X-100-based cell lysis buffer. Lysates were applied to an 8%-12% SDS-PAGE gel. Separated proteins were transferred onto an Immobilon-P membrane (Millipore). After blots were blocked, the membranes were incubated with antibodies and were then developed with ECL systems. Exposed X-ray films were scanned and analyzed with ImageJ software (NIH). For protein extraction from cartilage from mouse ribs, proteins from frozen tissues were extracted into 8 M urea lysis buffer using Bead-beater (34) (Biospec Products Inc.). For detecting endogenous GPT in immortalized B cells, 1.5×10^7 cells were suspended in hypotonic lysis buffer and then ultrasonicated for 30 seconds. After removing debris by spinning at 1,000 g for 3 minutes, supernatant was further ultracentrifuged at 100,000 g for 2 hours. The membrane fractions were solubilized with 3% Triton X-100-containing lysis buffer, 150 μg protein was analyzed by Western blotting.
AMO. […] After 12, 24, and 48 hours, RNA was extracted for quantitative RT-PCR as well as cloning of MBTPS1 cDNA. The following primer pair was used to quantify a MBTPS1 transcript with 41-bp deletion in exon 9: forward primer targeting the boundary exons 7 and 8, 5′-[…]-3′; reverse primer targeting exon 10, 5′-CTGG-TAGCTCCTTCAAAGTC-3′.

Tango1 and Hsp47 = assay: Western blotting of Sec23a, Tango1 and Hsp47 in fibroblasts; format: cell-based, human; settings: patient fibroblasts treated with S1P inhibitor
Protocol: as §2

[3] = tested on: maternal and patient fibroblasts; assay: Lysosomal enzyme secretion and lysosome morphology in fibroblasts treated with S1P inhibitor; format: cell-based, human; settings: maternal and patient fibroblasts treated with PF-429242
[4] = tested on: mutant MBTPS1 transcripts; assay: Nonsense-mediated mRNA decay test in parental immortalized B cells; format: cell-based, human; settings: cycloheximide 100 μM, 6 hours
Protocol: as §1

Human growth hormone: Human growth hormone replacement therapy given to the patient
clinical response (growth) [1]: limited response

AMO: Antisense morpholino oligo 5′-AGAAAAGCGGGCGATGTTAcCTTCA-3′ against exon 9 cryptic splice donor site in the maternal mutant MBTPS1 transcript (antisense AGAAAAGCGGGCGATGTTACCTTCA; all phosphorodiamidate morpholino (PMO))
expression of UPR- and COP-II-related genes [2]: increased
41-bp-deleted pathogenic splice variant (MBTPS1 transcripts; patient cells, compared with control oligo): substantial decrease
increase of total MBTPS1 expression (MBTPS1 transcripts; patient fibroblasts treated with AMO, data not shown): 10 fold
increase in properly spliced MBTPS1 transcripts (MBTPS1 transcripts; patient fibroblasts, AMO 10 μM, compared with control oligo): 20 fold
increase in correctly spliced transcript (cloned exon 9 of MBTPS1 cDNA) (MBTPS1 transcripts; patient fibroblasts, compared with control oligo treatment): 2 fold
increase of absolute maternal transcript with a missense mutation (p.D365G) (MBTPS1 transcripts; patient fibroblasts, compared with control oligo-treated cells): 20 fold
secretion of collagen I (secreted procollagen I) (patient fibroblasts; patient fibroblasts, 48 hours after AMO): increased
S1P-dependent activation (cleavage) of BBF2H7 (BBF2H7): improved cleavage; also recorded: increased

PF-429242
Tango1 and Hsp47 protein (Tango1 and Hsp47): further decreased
collagen I secretion (patient fibroblasts; patient fibroblasts treated with S1P inhibitor): impaired
lysosome size [3]: lysosomal hypertrophy
secretion of lysosomal enzymes [3]: elevated

C[C@@H]1C[C@@H]([C@H](O)CC2CC(=O)NC(=O)C2)C(=O)[C@@H](C)C1 [cycloheximide]
mutant MBTPS1 transcripts (NMD inhibition) [4]: stabilized
